Legend:
Experiment in all cases: competitive isoTOP-ABPP
Type in all cases: binding
[1] = target: T1, SIN3A Paired amphipathic helix protein Sin3a (Homo sapiens, UniProt Q96ST3); details: for isoTOP-ABPP ratio (R) at liganded lysine Q96ST3_K155 / isoTOP-ABPP reactivity ratio at lysine Q96ST3_K155 / R value (DMSO/fragment) for probe 1 labeling: 50 uM, in vitro; for isoTOP-ABPP ratio (R) at liganded lysine Q96ST3_K155: sol, 231; for isoTOP-ABPP reactivity ratio at lysine Q96ST3_K155 / R value (DMSO/fragment) for probe 1 labeling: 231 sol; for R value (DMSO/fragment) for probe 1 labeling: Q96ST3_K155; for isoTOP-ABPP ratio, lysine Q96ST3_K155: possible other lysine Q96ST3_K152
T1 construct: isoTOP-ABPP experiments performed in cell lysates (in vitro); endogenous in cells; host or cells: soluble proteome of human cancer cell lines (MDA-MB-231; Ramos and Jurkat also prepared)
T1 sequence (Q96ST3 1-1273): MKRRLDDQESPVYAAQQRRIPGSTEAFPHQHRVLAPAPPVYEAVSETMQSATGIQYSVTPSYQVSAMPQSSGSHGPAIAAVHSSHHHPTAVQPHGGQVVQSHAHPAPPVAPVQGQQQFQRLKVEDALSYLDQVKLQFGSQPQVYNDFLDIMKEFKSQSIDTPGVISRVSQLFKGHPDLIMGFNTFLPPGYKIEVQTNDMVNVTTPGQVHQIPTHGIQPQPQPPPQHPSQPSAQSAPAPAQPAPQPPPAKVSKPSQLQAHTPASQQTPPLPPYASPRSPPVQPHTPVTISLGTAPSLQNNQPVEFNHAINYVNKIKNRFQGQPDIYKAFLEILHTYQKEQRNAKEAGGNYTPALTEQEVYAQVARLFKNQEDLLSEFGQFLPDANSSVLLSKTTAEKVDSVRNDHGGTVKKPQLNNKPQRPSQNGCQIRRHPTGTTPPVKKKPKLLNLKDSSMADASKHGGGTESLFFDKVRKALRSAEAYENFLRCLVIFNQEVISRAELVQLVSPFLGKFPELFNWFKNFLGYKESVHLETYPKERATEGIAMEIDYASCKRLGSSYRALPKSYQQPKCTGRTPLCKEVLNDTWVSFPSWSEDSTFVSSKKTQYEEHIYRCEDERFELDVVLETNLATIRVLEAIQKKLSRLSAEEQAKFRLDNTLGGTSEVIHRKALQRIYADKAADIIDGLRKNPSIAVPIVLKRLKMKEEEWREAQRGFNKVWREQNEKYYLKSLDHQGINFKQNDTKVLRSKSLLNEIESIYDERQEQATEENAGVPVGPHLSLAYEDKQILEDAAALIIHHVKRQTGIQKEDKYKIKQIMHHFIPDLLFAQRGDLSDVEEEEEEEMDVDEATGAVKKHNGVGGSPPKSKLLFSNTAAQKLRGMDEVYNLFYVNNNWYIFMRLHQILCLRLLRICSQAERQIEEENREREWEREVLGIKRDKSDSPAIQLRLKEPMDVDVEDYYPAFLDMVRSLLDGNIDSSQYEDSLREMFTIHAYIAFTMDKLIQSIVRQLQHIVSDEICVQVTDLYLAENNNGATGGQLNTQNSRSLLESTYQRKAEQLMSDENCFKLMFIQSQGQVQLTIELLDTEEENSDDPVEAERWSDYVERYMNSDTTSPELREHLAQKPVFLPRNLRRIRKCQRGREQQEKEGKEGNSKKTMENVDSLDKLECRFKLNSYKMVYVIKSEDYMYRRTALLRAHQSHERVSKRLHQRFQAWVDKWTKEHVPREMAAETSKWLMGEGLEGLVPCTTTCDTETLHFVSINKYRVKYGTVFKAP
Summary of the method: (§1)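 Probe: STP-alkyne, 0.1 mM, 1 h RT, after fragment pretreatment of lysate (esters 50 μM; guanidinylators 100 μM). Tags: light = compound, heavy = DMSO, via CuAAC. Replicates averaged if SD <60% of mean; otherwise lowest ratio used when any R <4.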

[2] = target: T2, RQCD1 Cell differentiation protein RCD1 homolog (Homo sapiens, UniProt Q92600); details: for isoTOP-ABPP ratio (R) at liganded lysine Q92600_K230 / isoTOP-ABPP reactivity ratio at lysine Q92600_K230 / R value (DMSO/fragment) for probe 1 labeling: 50 uM, in vitro; for isoTOP-ABPP ratio (R) at liganded lysine Q92600_K230: sol, 231; for isoTOP-ABPP reactivity ratio at lysine Q92600_K230 / R value (DMSO/fragment) for probe 1 labeling: 231 sol; for R value (DMSO/fragment) for probe 1 labeling: Q92600_K230
T2 construct: isoTOP-ABPP experiments performed in cell lysates (in vitro); endogenous in cells; host or cells: soluble proteome of human cancer cell lines (MDA-MB-231; Ramos and Jurkat also prepared)
T2 sequence (Q92600 whole entry, the tested form may be a part): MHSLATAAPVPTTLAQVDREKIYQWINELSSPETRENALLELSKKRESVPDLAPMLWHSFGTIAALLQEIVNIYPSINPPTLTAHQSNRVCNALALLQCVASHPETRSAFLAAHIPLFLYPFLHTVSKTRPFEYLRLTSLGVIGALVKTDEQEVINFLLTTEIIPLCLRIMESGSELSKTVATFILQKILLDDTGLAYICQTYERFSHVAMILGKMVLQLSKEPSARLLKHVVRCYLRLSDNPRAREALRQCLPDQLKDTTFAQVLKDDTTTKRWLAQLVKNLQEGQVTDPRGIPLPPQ
Summary of the method: as §1

[3] = target: T3, GLUD1 Glutamate dehydrogenase 1, mitochondrial (Homo sapiens, UniProt P00367); details: for isoTOP-ABPP ratio (R) at liganded lysine P00367_K480 / isoTOP-ABPP reactivity ratio at lysine P00367_K480 / R value (DMSO/fragment) for probe 1 labeling: 50 uM, in vitro; for isoTOP-ABPP ratio (R) at liganded lysine P00367_K480: sol, 231; for isoTOP-ABPP reactivity ratio at lysine P00367_K480 / R value (DMSO/fragment) for probe 1 labeling: 231 sol; for R value (DMSO/fragment) for probe 1 labeling: P00367_K480; for isoTOP-ABPP ratio, lysine P00367_K480: possible other lysine P00367_K477
T3 construct: isoTOP-ABPP experiments performed in cell lysates (in vitro); endogenous in cells; host or cells: MDA-MB-231 soluble lysate
T3 sequence (P00367 54-558): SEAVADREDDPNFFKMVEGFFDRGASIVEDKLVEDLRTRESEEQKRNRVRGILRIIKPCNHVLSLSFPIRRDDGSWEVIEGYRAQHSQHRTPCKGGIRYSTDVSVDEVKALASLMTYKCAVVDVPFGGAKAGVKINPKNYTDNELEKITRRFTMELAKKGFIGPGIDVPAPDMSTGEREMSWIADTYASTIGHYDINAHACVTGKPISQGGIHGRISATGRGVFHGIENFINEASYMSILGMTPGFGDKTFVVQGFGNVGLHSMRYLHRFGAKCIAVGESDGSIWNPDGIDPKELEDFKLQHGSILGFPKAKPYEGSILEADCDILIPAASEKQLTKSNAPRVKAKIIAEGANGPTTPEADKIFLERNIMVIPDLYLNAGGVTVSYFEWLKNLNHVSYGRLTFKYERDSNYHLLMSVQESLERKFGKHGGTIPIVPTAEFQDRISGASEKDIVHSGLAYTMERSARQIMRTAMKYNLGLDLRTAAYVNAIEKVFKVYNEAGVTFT
Summary of the method: as §1

O=C(CCc1coc2cc(F)ccc2c1=O)Oc1ccc([N+](=O)[O-])cc1[N+](=O)[O-] [fragment 36, 2,4-Dinitrophenyl 3-(7-fluoro-4-oxo-4H-chromen-3-yl)propanoate]
isoTOP-ABPP ratio (R) at liganded lysine Q96ST3_K155 [1]: 1.4 | isoTOP-ABPP ratio (R) at liganded lysine Q92600_K230 [2]: 2.5 | isoTOP-ABPP ratio (R) at liganded lysine P00367_K480 [3]: 3.2

O=C(Oc1ccc([N+](=O)[O-])cc1[N+](=O)[O-])C(c1ccccc1)(c1ccccc1)c1ccccc1 [fragment 42, 2,4-Dinitrophenyl 2,2,2-triphenylacetate]
isoTOP-ABPP ratio (R) at liganded lysine Q96ST3_K155 [1]: 0.9 | isoTOP-ABPP ratio (R) at liganded lysine Q92600_K230 [2]: 0.8 | isoTOP-ABPP ratio (R) at liganded lysine P00367_K480 [3]: 1.1

O=C(CCc1coc2cc(F)ccc2c1=O)Oc1c(F)c(F)c(F)c(F)c1F [fragment 26, Pentafluorophenyl 3-(7-fluoro-4-oxo-4H-chromen-3-yl)propanoate]
isoTOP-ABPP reactivity ratio at lysine Q96ST3_K155 [1]: 1.7 | isoTOP-ABPP reactivity ratio at lysine Q92600_K230 [2]: 1.2 | isoTOP-ABPP reactivity ratio at lysine P00367_K480 [3]: 1.6

O=C(Oc1ccc([N+](=O)[O-])cc1[N+](=O)[O-])c1ccccc1Nc1cccc(C(F)(F)F)c1 [fragment 40, 2,4-Dinitrophenyl 2-((3-(trifluoromethyl)phenyl)amino)benzoate]
isoTOP-ABPP ratio (R) at liganded lysine Q96ST3_K155 [1]: 1.1 | isoTOP-ABPP ratio (R) at liganded lysine Q92600_K230 [2]: 0.9 | isoTOP-ABPP ratio (R) at liganded lysine P00367_K480 [3]: 1.2

O=C(Oc1ccc([N+](=O)[O-])cc1[N+](=O)[O-])C1CCN(C(=O)OCc2ccccc2)CC1 [fragment 34, 1-Benzyl 4-(2,4-dinitrophenyl) piperidine-1,4-dicarboxylate]
isoTOP-ABPP ratio (R) at liganded lysine Q96ST3_K155 [1]: 0.8 | isoTOP-ABPP ratio (R) at liganded lysine Q92600_K230 [2]: 0.8 | isoTOP-ABPP ratio (R) at liganded lysine P00367_K480 [3]: 1.3

Cn1cc(CC(=O)Oc2c(F)c(F)c(F)c(F)c2F)c2ccccc21 [fragment 22, Pentafluorophenyl 2-(1-methyl-1H-indol-3-yl)acetate]
R value (DMSO/fragment) for probe 1 labeling [1]: 3.9 | R value (DMSO/fragment) for probe 1 labeling [2]: 1.0 | R value (DMSO/fragment) for probe 1 labeling [3]: 2.5

O=C(Oc1c(F)c(F)c(C(F)(F)F)c(F)c1F)c1cc(C(F)(F)F)cc(C(F)(F)F)c1 [fragment 47, 2,3,5,6-Tetrafluoro-4-(trifluoromethyl)phenyl 3,5-bis(trifluoromethyl)benzoate]
isoTOP-ABPP ratio, lysine Q96ST3_K155 ([1]; 50 uM_231_sol_in vitro): 1.8 | isoTOP-ABPP ratio, lysine Q92600_K230 ([2]; 50 uM_231_sol_in vitro): 0.8 | isoTOP-ABPP ratio, lysine P00367_K480 ([3]; 50 uM_231_sol_in vitro): 2.0

O=C(CC12CC3CC(CC(C3)C1)C2)Oc1ccc([N+](=O)[O-])cc1[N+](=O)[O-] [fragment 38, 2,4-Dinitrophenyl 2-(adamantan-1-yl)acetate]
isoTOP-ABPP ratio (R) at liganded lysine Q96ST3_K155 [1]: 1.2 | isoTOP-ABPP ratio (R) at liganded lysine Q92600_K230 [2]: 0.9 | isoTOP-ABPP ratio (R) at liganded lysine P00367_K480 [3]: 1.3

O=C(ON1C(=O)CCC1=O)c1cc(C(F)(F)F)cc(C(F)(F)F)c1 [fragment 46, 3,5-Bis(trifluoromethyl)benzoic acid NHS ester]
isoTOP-ABPP ratio, lysine Q96ST3_K155 ([1]; 50 uM_231_sol_in vitro): 4.4 | isoTOP-ABPP ratio, lysine Q92600_K230 ([2]; 50 uM_231_sol_in vitro): 1.1 | isoTOP-ABPP ratio, lysine P00367_K480 ([3]; 50 uM_231_sol_in vitro): 1.5

NC(=O)c1cc(C(F)(F)F)cc(C(F)(F)F)c1 [fragment 51, reference compound]
isoTOP-ABPP ratio, lysine Q96ST3_K155 ([1]; 50 uM_231_sol_in vitro): 1.1 | isoTOP-ABPP ratio, lysine Q92600_K230 ([2]; 50 uM_231_sol_in vitro): 0.9 | isoTOP-ABPP ratio, lysine P00367_K480 ([3]; 50 uM_231_sol_in vitro): 1.5

O=C(CN1C(=O)c2ccccc2C1=O)Oc1c(F)c(F)c(F)c(F)c1F [fragment 27, Pentafluorophenyl 2-(1,3-dioxoisoindolin-2-yl)acetate]
isoTOP-ABPP reactivity ratio at lysine Q96ST3_K155 [1]: 11.7 | isoTOP-ABPP reactivity ratio at lysine P00367_K480 [3]: 2.0

O=C(CCc1cn(-c2ccccc2)nc1-c1ccccc1)Oc1c(F)c(F)c(F)c(F)c1F [fragment 19, Pentafluorophenyl 3-(1,3-diphenyl-1H-pyrazol-4-yl)propanoate]
R value (DMSO/fragment) for probe 1 labeling [1]: 1.6 | R value (DMSO/fragment) for probe 1 labeling [2]: 1.0 | R value (DMSO/fragment) for probe 1 labeling [3]: 1.0

COc1cc(CCC(=O)Oc2ccc([N+](=O)[O-])cc2[N+](=O)[O-])cc(OC)c1OC [fragment 33, 2,4-Dinitrophenyl 3-(3,4,5-trimethoxyphenyl)propanoate]
isoTOP-ABPP reactivity ratio at lysine Q96ST3_K155 [1]: 2.0 | isoTOP-ABPP reactivity ratio at lysine Q92600_K230 [2]: 2.5 | isoTOP-ABPP reactivity ratio at lysine P00367_K480 [3]: 6.2

O=C(Oc1ccc([N+](=O)[O-])cc1[N+](=O)[O-])C(c1ccccc1)c1ccccc1 [fragment 30, 2,4-Dinitrophenyl 2,2-diphenylacetate]
isoTOP-ABPP reactivity ratio at lysine Q96ST3_K155 [1]: 20.0 | isoTOP-ABPP reactivity ratio at lysine Q92600_K230 [2]: 1.6 | isoTOP-ABPP reactivity ratio at lysine P00367_K480 [3]: 1.8

O=C(Oc1ccc([N+](=O)[O-])cc1[N+](=O)[O-])c1cc(C(F)(F)F)cc(C(F)(F)F)c1 [fragment 31, 2,4-Dinitrophenyl 3,5-bis(trifluoromethyl)benzoate]
isoTOP-ABPP reactivity ratio at lysine Q96ST3_K155 [1]: 18.6 | isoTOP-ABPP reactivity ratio at lysine Q92600_K230 [2]: 1.0 | isoTOP-ABPP reactivity ratio at lysine P00367_K480 [3]: 1.3

O=C(CCc1cn(-c2ccccc2)nc1-c1ccccc1)Oc1ccc([N+](=O)[O-])cc1[N+](=O)[O-] [fragment 29, 2,4-Dinitrophenyl 3-(1,3-diphenyl-1H-pyrazol-4-yl)propanoate]
isoTOP-ABPP reactivity ratio at lysine Q96ST3_K155 [1]: 1.5 | isoTOP-ABPP reactivity ratio at lysine Q92600_K230 [2]: 1.0 | isoTOP-ABPP reactivity ratio at lysine P00367_K480 [3]: 1.9

CC(=O)Oc1ccc([N+](=O)[O-])cc1[N+](=O)[O-] [fragment 43, 2,4-Dinitrophenyl acetate]
isoTOP-ABPP ratio (R) at liganded lysine Q96ST3_K155 [1]: 1.2 | isoTOP-ABPP ratio (R) at liganded lysine Q92600_K230 [2]: 6.8 | isoTOP-ABPP ratio (R) at liganded lysine P00367_K480 [3]: 3.9

O=C(Oc1c(F)c(F)cc(F)c1F)c1cc(C(F)(F)F)cc(C(F)(F)F)c1 [fragment 48, 2,3,5,6-Tetrafluorophenyl 3,5-bis(trifluoromethyl)benzoate]
isoTOP-ABPP ratio, lysine Q96ST3_K155 ([1]; 50 uM_231_sol_in vitro): 20.0 | isoTOP-ABPP ratio, lysine P00367_K480 ([3]; 50 uM_231_sol_in vitro): 1.5

CC(C)(C)OC(=O)N=C(NC(=O)OC(C)(C)C)n1cccn1 [fragment 50, reference compound]
isoTOP-ABPP ratio, lysine Q96ST3_K155 ([1]; 100 uM_231_sol_in vitro): 3.5 | isoTOP-ABPP ratio, lysine Q92600_K230 ([2]; 100 uM_231_sol_in vitro): 1.0 | isoTOP-ABPP ratio, lysine P00367_K480 ([3]; 100 uM_231_sol_in vitro): 1.3

COC(=O)NC(=NC(=O)OCC1c2ccccc2-c2ccccc21)n1cccn1 [fragment 49, N-Methoxycarbonyl-N′-9-fluorenylmethoxycarbonyl-pyrazole-1-carboxamidine]
isoTOP-ABPP ratio, lysine Q92600_K230 ([2]; 100 uM_231_sol_in vitro): 1.1 | isoTOP-ABPP ratio, lysine P00367_K480 ([3]; 100 uM_231_sol_in vitro): 2.0

CCn1cc(C(=O)Oc2c(F)c(F)c(F)c(F)c2F)c(=O)c2ccc(C)nc21 [fragment 28, Pentafluorophenyl 1-ethyl-7-methyl-4-oxo-1,4-dihydro-1,8-naphthyridine-3-carboxylate]
isoTOP-ABPP reactivity ratio at lysine Q96ST3_K155 [1]: 4.9 | isoTOP-ABPP reactivity ratio at lysine P00367_K480 [3]: 1.0

O=C(Oc1c(F)c(F)c(F)c(F)c1F)C1CCN(C(=O)OCc2ccccc2)CC1 [fragment 24, 1-Benzyl 4-(pentafluorophenyl) piperidine-1,4-dicarboxylate]
isoTOP-ABPP reactivity ratio at lysine Q96ST3_K155 [1]: 1.1 | isoTOP-ABPP reactivity ratio at lysine P00367_K480 [3]: 2.0

O=C(Oc1c(F)c(F)c(F)c(F)c1F)c1ccc2ccccc2n1 [fragment 25, Pentafluorophenyl quinoline-2-carboxylate]
isoTOP-ABPP reactivity ratio at lysine Q96ST3_K155 [1]: 11.1 | isoTOP-ABPP reactivity ratio at lysine P00367_K480 [3]: 1.2
